# Reference: ChEMBL document CHEMBL1201862, “PubChem BioAssay data set” (2004)
#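 Briefly, cells in 96-well plates were exposed to five compound concentrations for 48 h, and endpoints were estimated by linear interpolation. At the GI50, growth is halved.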 Active and inactive are the calls of the source. Cut-off read from the data, not from the text of the source: active = GI50 up to about 1.1 µM and inactive = higher.
# Tests used:
# Assay in all cases: DTP human tumour cell line panel, 48 h
# 786-0 = tested on: 786-0
# A498 = tested on: A498
# BT-549 = tested on: BT-549
# COLO 205 = tested on: COLO 205
# HCT-116 = tested on: HCT-116
# HOP-92 = tested on: HOP-92
# M14 = tested on: M14
# MCF7 = tested on: MCF7
# MOLT-4 = tested on: MOLT-4
# Malme-3M = tested on: Malme-3M
# NCI-H522 = tested on: NCI-H522
# OVCAR-8 = tested on: OVCAR-8
# RXF 393 = tested on: RXF 393
# SF-295 = tested on: SF-295
# SK-OV-3 = tested on: SK-OV-3
# SNB-19 = tested on: SNB-19
# SNB-75 = tested on: SNB-75
# SW-620 = tested on: SW-620
# TK-10 = tested on: TK-10
# UACC-62 = tested on: UACC-62
Compound,GI50 (786-0),GI50 (A498),GI50 (BT-549),GI50 (COLO 205),GI50 (HCT-116),GI50 (HOP-92),GI50 (M14),GI50 (MCF7),GI50 (MOLT-4),GI50 (Malme-3M),GI50 (NCI-H522),GI50 (OVCAR-8),GI50 (RXF 393),GI50 (SF-295),GI50 (SK-OV-3),GI50 (SNB-19),GI50 (SNB-75),GI50 (SW-620),GI50 (TK-10),GI50 (UACC-62)
Oc1ccccc1/C=N/c1ccc(-c2nc3ccccc3[nH]2)cc1,> 100000 nM (inactive),> 100000 nM (inactive),12800 nM (inactive),47200 nM (inactive),53600 nM (inactive),22900 nM (inactive),63400 nM (inactive),20700 nM (inactive),21300 nM (inactive),93300 nM (inactive),63500 nM (inactive),47100 nM (inactive),29700 nM (inactive),71000 nM (inactive),> 100000 nM (inactive),> 100000 nM (inactive),42100 nM (inactive),90200 nM (inactive),> 100000 nM (inactive),
CCOC(=O)C1=C(C)N(Cc2ccc(Cl)cc2Cl)C2(O)C(OC)CC(=O)C3C(=O)N(c4ccccc4)C(=O)C132 (configuration not stated),1470 nM (inactive),10800 nM (inactive),1610 nM (inactive),3640 nM (inactive),1390 nM (inactive),54.1 nM (active),2090 nM (inactive),1910 nM (inactive),1790 nM (inactive),10600 nM (inactive),2010 nM (inactive),1950 nM (inactive),1110 nM (active),4430 nM (inactive),,2530 nM (inactive),< 10 nM (active),2520 nM (inactive),10000 nM (inactive),3130 nM (inactive)
C/C(=N\Nc1nc2cccnc2s1)c1ccccn1,51.2 nM (active),> 100000 nM (inactive),117 nM (active),< 10 nM (active),< 10 nM (active),370 nM (active),< 10 nM (active),13.6 nM (active),< 10 nM (active),< 10 nM (active),< 10 nM (active),< 10 nM (active),1060 nM (active),288 nM (active),90.2 nM (active),491 nM (active),451 nM (active),< 14.3 nM (active),,58.6 nM (active)
